Assay results from patent publication US8314217B2, “Cross-linked glycopeptide-cephalosporin antibiotics” (priority 2003, dated 2012).
In brackets after ≈: the same amount, converted by molar mass.

Columns and labels:
MRSA 33591 [1] = experiment: Minimal inhibitory concentration (MIC), broth microdilution; type: cell-based, methicillin-resistant Staphylococcus aureus; conditions: Staphylococcus aureus, read-out: MIC MRSA 33591
Procedure: (§1) Minimal inhibitory concentration (MICs) assays were performed using the broth microdilution method set forth in NCCLS guidelines (see, NCCLS. 2000. Methods for Dilution Antimicrobial Susceptibility Tests for Bacteria That Grow Aerobically; Approved Standard—Fifth Ed., Vol. 20, No. 2). Bacterial strains were obtained from the American Type Tissue Culture Collection (ATCC), Stanford University Hospital (SU), Kaiser Permanente Regional Laboratory in Berkeley (KPB), Massachusetts General Hospital (MGH), the Centers for Disease Control (CDC), the San Francisco Veterans' Administration Hospital (SFVA) or the University of California San Francisco Hospital (UCSF). Vancomycin-resistant enterococci were phenotyped as Van A or Van B based on their sensitivity to teicoplanin. Some vancomycin-resistant enterococci that had been genotyped as Van A, Van B, Van C1 or Van C2 were also obtained from the Mayo Clinic.
(§2) In this assay, cryopreserved bacterial cultures of reference and clinical strains were streaked for isolation on appropriate agar medium (i.e., Trypticase Soy Agar, Trypticase Soy Agar with defibrinated sheep erythrocytes, Brain Heart Infusion Agar, Chocolate Agar). Following incubation to allow formation of colonies, these plates were sealed with Parafilm® and stored refrigerated for up to two weeks. […] The MIC was read visually as the lowest concentration well with no bacterial growth. […]

[2] = system: methicillin-susceptible Staphylococcus aureus (MSSA 13709) and methicillin-resistant Staphylococcus aureus (MRSA 33591); experiment: In vivo efficacy in neutropenic mice (thigh infection); set-up: species or system Male CD-1 mice; conditions: iv, 24 h, read-out: ED50 (dose required to produce 50% of the maximum reduction in thigh titre)
Procedure: Animals (Male CD-1 mice, 20-30 g) were acquired from Charles Rivers Laboratories (Gilroy, Calif.) and allowed access to food and water ad libitum. Neutropenia was induced via 200 mg/kg intraperitoneal (IP) injection of cyclophosphamide given four and two days prior to the inoculation of bacteria.
The organism used was either a susceptible or resistant strain of clinically relevant Gram-positive pathogens, such as methicillin-susceptible Staphylococcus aureus (MSSA 13709) and methicillin-resistant Staphylococcus aureus (MRSA 33591). The bacterial inoculum concentration was ˜10^6 CFU/mL. Animals were lightly anesthetized with isoflurane and […] of the bacterial inoculum was injected into the anterior thigh. One hour after the inoculation, animals were dosed intravenously with vehicle or the appropriate dose of the test compound. At 0 hours and 24 hours post-treatment, the animals were euthanized (CO2 asphyxiation) and the anterior and posterior thigh collected aseptically. The thigh was placed into 10 mL sterile saline and homogenized. Dilutions of the homogenate were plated onto triptic soy agar plates which were incubated overnight. The number of bacterial colonies on a given plate was multiplied by the dilution factor, divided by the thigh weight (in grams) and expressed as log CFU/g. […]

MRSA 33591 [3] = experiment: Time-kill assay; type: cell-based, methicillin-resistant Staphylococcus aureus; conditions: MRSA 33591, in 24 hours
Procedure: This time-kill assay is a method for measuring the rate of bactericidal activity of a test compound. […] A rapid time-kill is desirable to quickly prevent bacterial colonization and reduce host tissue damage.
Bacteria were diluted in prewarmed media in shake flasks and incubated with shaking (200 rpm, 35° C.). At 0, 1, 4, and 24 hours samples were withdrawn from the flasks and bacteria were enumerated by plate counting. Subsequent to the initial sampling, a compound to be assayed was added to the shake flask culture. Plate counts at these intervals previous to and following addition of the compound were expressed graphically in a time-kill curve.

MSSA 13709 = experiment: Minimal inhibitory concentration (MIC), broth microdilution; type: cell-based, methicillin-susceptible Staphylococcus aureus; conditions: Staphylococcus aureus, read-out: MIC MSSA 13709
Procedure: as §1, §2

CN[C@H](CC(C)C)C(=O)N[C@H]1C(=O)N[C@@H](CC(N)=O)C(=O)N[C@H]2C(=O)N[C@H]3C(=O)N[C@H](C(=O)N[C@H](C(=O)O)c4cc(O)cc(O)c4-c4cc3ccc4O)[C@H](O)c3ccc(c(Cl)c3)Oc3cc2cc(c3O[C@@H]2O[C@H](CO)[C@@H](O)[C@H](O)[C@H]2O[C@H]2C[C@](C)(N)[C@H](O)[C@H](C)O2)Oc2ccc(cc2Cl)[C@H]1O [Vancomycin]
MIC (MRSA 33591 [1]): 2 µg/mL (≈ 1.38 µM) | ED50 [2]: 9 mg/kg | bactericidal concentration (≧3 log decrease in bacterial cell numbers) (MRSA 33591 [3]): 4 μg/mL | MIC (MSSA 13709): 1 µg/mL (≈ 0.69 µM)
